The values that follow come from patent US20220257552A1, “METHODS OF PRESCREENING AND TREATING BREAST CANCERS WITH SELECTIVE ANDROGEN RECEPTOR MODULATORS” (priority 2021, published 2022).

One assay has as its system BR-0001 TNBC. As to the kind of experiment: BR-0001 AR-positive TNBC xenograft in NSG mice. The class given is in vivo. As to conditions: 10 mg/kg/day Formula IX or enzalutamide orally. The procedure: Xenograft experiment. NSG mice obtained from JAX labs were housed with five animals per cage and were allowed free access to tap water and commercial rat chow (Harlan Teklad 22/5 rodent diet—8640). During the course of the study, the animals were maintained on a 12 hr light:dark cycle. Animals were anesthetized and BR-0001 TNBC fragments of 1 mm^3 (approximately) were implanted subcutaneously in NSG mice. […] Tumor volume was measured thrice weekly. Tumor volume was calculated using the formula length×width×width×0.5236. Once tumors reached greater than 1500-2000 mm^3, animals were sacrificed and tumors weighted and stored for various analysis. Two regions of the same BR-0001 tumor, an AR-positive TNBC xenograft, were immunohistochemically stained with AR antibody (AR N20 from SCBT) (FIGS. 26A and 26B) and compared to an AR-negative (FIG. 26C) TNBC as a negative control. […] The tumor xenograft efficacy experimental results are provided in 27A-27C, with FIGS. 27A and 27B being replicate experiments.
Tumors from replicate experiment 2 (FIG. 27B) were fixed in formalin and paraffin embedded. Slides were cut and stained with Ki-67 antibody. Ki-67 positive cells (total 200 cells were counted in each slide) in each slide were counted and represented as % stained cells, as shown in FIG. 28B.

For the next assay, the system named is HCI-7 PDX. The assay can be described thus: HCI-7 (HCI-007) patient-derived xenograft in NSG mice. It counts as in vivo. As to conditions: Formula IX 10 mg/kg, enzalutamide 20 mg/kg, orally, vs vehicle. The procedure: HCI-007 tumor pieces (1 mm^3) were implanted surgically (one per mouse) under the skin on the flanks of NSG mice. Simultaneously, 17β-estradiol pellet (Innovative Research of America) was implanted surgically under the skin of each mouse. Tumors were allowed to grow and reach approximately 100 mm^3 volume (1*W*W*0.526). […] Tumor volume was measured weekly and represented as % change in tumor volume (FIG. 32). Mice were sacrificed and tumors stored for further analysis.
(§1) All animal protocols were approved by The University of Tennessee Health Science Center (UTHSC) Institutional Animal Care and Use Research Committee. Xenograft experiments were performed as previously published (Narayanan et al. (2014) PLoS One 9, e103202). Briefly, 3 million MCF-7 cells were suspended in 0.05 ml MEM+10% FBS and 0.05 ml Matrigel/nude mouse and were injected subcutaneously. Once the tumor size reached 100-200 mm^3, the animals were randomized and treated orally with the indicated drugs formulated in DMSO:PEG-300 (15:85). HCI-7, HCI-9, and HCI-13 PDXs were gifts kindly donated by Dr. Alana Welm (Huntsman Cancer Institute, Salt Lake City, Utah). HCI PDX tumor fragments (1 mm^3) were surgically implanted under the mammary fat pad in female NOD SCID Gamma (NSG) mice. Tumor volume was measured twice weekly for MCF-7 xenograft and once or twice weekly for HCI PDXs. At the end of the study, animals were sacrificed and tumors were excised, weighed, and stored for various analyses.
From the several PDXs available, three AR-positive PDXs were identified, based on gene expression profile. […] The enzalutamide dose was selected based on previous published experiments (Park et al. (2016) Cancer Invest 34, 517-520; Pollock et al. (2016) Nat Chem Biol 12, 795-801) as well as from internal experiments conducted in prostate cancer xenografts and in Hershberger studies.

Another assay concerns MCF-7-GFP cells. The class given is cell-based, human. As to conditions: 10 days. The source says: Tumor microenvironment contains tumor epithelial cells, stromal cells, cancer-associated fibroblasts (CAFs), and endothelial cells. The collective function of these cells promotes the aggressive growth of tumors due to secretion of paracrine factors. The CAFs are important for the sustained growth of cancers, and they differ from normal fibroblasts in their capacity to secrete factors that promote proliferation of cancer cells. […] Medium was collected over a period of 10 days and pooled. CAFs were stained with SRB to evaluate the effect of AR ligands on proliferation.
Conditioned medium was replaced on days 4 and 7 and the cells were stained with SRB to measure viability.

The next assay has as its system HCI-9 PDX. As to the kind of experiment: HCI-9 patient-derived xenograft in NSG mice. It counts as in vivo. As to conditions: Formula IX 10 mpk, enzalutamide 30 mpk p.o. The procedure: as §1
To determine if the same effect is observed in an AR-positive, but ER-negative breast cancer, HCI-9 tumor fragments were implanted under the mammary fat pad of NSG mice.
On the technique in general: A xenograft is tissue or cells of one species grown in another, often human tumour cells in immunodeficient mice.

The next assay concerns the target HCI-13 ER-α (Homo sapiens, UniProt P03372, Y537S). Conditions: 10 nM fulvestrant or 1 μM tamoxifen with 0.1 nM estradiol. The procedure: (§2) After 6 days of treatment, cells were harvested, and the number of cells was counted. […] Medium was changed after 3 days and re-treated. Cells were fixed after 6 days of treatment and the cell viability was measured by SRB assay. […] Medium was changed, and the cells were re-treated on days 4 and 7. Medium was collected, pooled from triplicates, and stored in −80° C. After 10 days of treatment, cells were fixed, and cell viability was measured using SRB. MCF-7 cells stably transfected with GFP (MCF-7-GFP) were plated in growth medium. Twenty-four hours after plating, cells were fed with the conditioned medium obtained from patient-derived fibroblasts as indicated above. Cells were fed for 10 days with conditioned medium, with medium changed on days 4 and 7. After 10 days of treatment, cells were fixed, and the viability was measured by SRB assay. […] AR-positive, but ER-negative HCI-9 PDX was surgically implanted as 1 mm^3 fragments under the mammary fat pad in NSG mice (n=8-10/group). […] Tumor volume was measured thrice weekly. […] ER-α from HCI-13 was cloned into pCR3.1 vector. Wildtype ER-α and HCI-13 ER-α, ERE-LUC, and CMV-LUC were transfected into COS-1 cells using lipofectamine. […] Twenty four hours after treatment cells were harvested and luciferase assay was performed. […] Values are expressed as average±S.E. from n=3-4/data point.

The next assay addresses Wildtype ER-α (Homo sapiens, UniProt P03372). As to conditions: 10 nM fulvestrant or 1 μM tamoxifen with 0.1 nM estradiol. The procedure: as §2
The subject of assay [1] is metastatic ER+/HER2- breast cancer. As to conditions: cited from earlier work.
Assay [2] relates to breast cancer specimens obtained from patients. The assay can be described thus: Breast cancer patient specimens, ex vivo sponge culture. Conditions: 1 μM Formula IX, 100 nM fulvestrant, 3 days. It counts as cell-based, human. How it is done:
Specimens from breast cancer patients were collected with patient consent under a protocol approved by the UTHSC Institutional Review Board (IRB). Specimens were collected immediately after surgery in RPMI medium containing penicillin:streptomycin and Fungizone and transported to the laboratory on ice. The tissues were finely minced and treated with collagenase for 2 hours.
(§3) HCI-13 tumors grown in female mice were allowed to reach 500-1000 mm^3 before the animals were sacrificed and the tumors were excised to be used for sponge culture. Patient specimens frozen in liquid nitrogen in freezing medium were used for sponge culture. […] Tumors were sliced into small pieces (˜1 mm^3) and incubated on pre-soaked gelatin sponges (5 fragments/sponge) in 12 well plates containing 1.5 mL medium (MEM+10% FBS+2 mM L-glutamine+10 μg/mL insulin+10 μg/mL hydrocortisone+penicillin:streptomycin). The cultures were performed in triplicates for HCI-13 and singly for patient specimens. Pooled samples (n=5/sponge) from each sponge constituted one sample. Tissues were harvested after 3 days of treatment, RNA extracted, and expression of various genes measured. Although the same procedure was adopted for specimens obtained from breast cancer patients, the specimens were cultured singly (n=5/sponge=one sample) and not in triplicates as performed for HCI-13.
Like other cancers, breast cancer is also heterogeneous in its genomic profile as well as in its response to treatments. […] Three days after treatment, RNA was isolated from the tissues and expression of ER- and AR-target genes was measured.

For another assay, the system named is HCI-13 tumor fragments. The assay can be described thus: HCI-13 ex vivo sponge culture, real time PCR. It counts as cell-based. Conditions: 10 nM DHT, 1 μM Formula IX, 100 nM fulvestrant, 3 days. How it is done:
as §3
For orientation: In qPCR the cycle at which signal appears reflects the starting amount.

For assay [3], the system named is TNBC. Conditions: with nab-paclitaxel; cited from earlier work.
Assay [4] relates to TNBC. Conditions: plus chemotherapy arm; cited from earlier work.

Wildtype ER-α, sequence (P03372 whole entry, species assumed): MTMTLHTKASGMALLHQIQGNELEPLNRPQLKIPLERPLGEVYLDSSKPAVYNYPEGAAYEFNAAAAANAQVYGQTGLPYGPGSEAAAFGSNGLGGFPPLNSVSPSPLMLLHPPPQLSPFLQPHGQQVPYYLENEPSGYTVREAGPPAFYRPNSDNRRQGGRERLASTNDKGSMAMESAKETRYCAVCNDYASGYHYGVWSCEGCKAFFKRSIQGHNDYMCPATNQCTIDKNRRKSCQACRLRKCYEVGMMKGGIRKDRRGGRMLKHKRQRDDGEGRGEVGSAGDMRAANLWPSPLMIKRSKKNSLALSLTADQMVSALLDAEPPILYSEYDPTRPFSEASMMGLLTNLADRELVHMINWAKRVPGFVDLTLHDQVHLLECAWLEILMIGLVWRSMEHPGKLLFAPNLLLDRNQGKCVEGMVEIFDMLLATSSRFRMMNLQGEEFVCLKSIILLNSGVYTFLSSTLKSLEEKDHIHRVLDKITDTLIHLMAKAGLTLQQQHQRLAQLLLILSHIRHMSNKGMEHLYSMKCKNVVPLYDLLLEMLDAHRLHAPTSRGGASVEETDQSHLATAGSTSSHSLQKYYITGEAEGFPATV
HCI-13 ER-α, sequence (P03372 whole entry Y537S): as the sequence (P03372 whole entry, species assumed) above, with Y537S counted along it

Turning to `CNC(=O)c1ccc(N2C(=S)N(c3ccc(C#N)c(C(F)(F)F)c3)C(=O)C2(C)C)cc1F` [enzalutamide, reference compound], in the assay with BR-0001 TNBC, the tumor growth result is recorded as “indistinguishable from vehicle treatment”. The “tumor growth (% change in tumor volume)” value in the assay on HCI-7 PDX is given as “grew comparably”. Further, the “proliferation of breast cancer CAFs” value in the assay on MCF-7-GFP cells (10 nM DHT, 1 μM Formula IX, 1 μM enzalutamide) was “neither AR agonist, DHT and Formula IX, nor AR antagonist enzalutamide, affected the proliferation”. Besides, the “proliferation of MCF-7-GFP cells fed conditioned medium from treated CAFs” value in the assay with MCF-7-GFP cells is “not”. Moreover, the tumor growth trajectory result in the assay with HCI-9 PDX is “Neither Formula IX nor enzalutamide altered the growth trajectory”.

Take `C[C@]12CC[C@@H]3c4ccc(O)cc4C[C@@H](CCCCCCCCC[S+]([O-])CCCC(F)(F)C(F)(F)F)[C@H]3[C@@H]1CC[C@@H]2O` (stereo partly shown) [fulvestrant]: the ER activity entry at HCI-13 ER-α is on record as “not inhibited”; at Wildtype ER-α it was “inhibited”. The “median PFS range” value in assay [1] (after failing one estrogen blocking therapy) is 4.6-9.3 months. In assay [1] (depending on the trial), the objective response rate is on record as 10.9%-21.3%. Moreover, the “specimens in which ER function was inhibited” value in assay [2] was 4 of 8. The “inhibition of ER-induced pS2 and PR gene expression” value with HCI-13 tumor fragments was “ineffective”.

For atezolizumab: PD-L1 blocking antibody, the “Median progression-free survival (PFS)” value with TNBC [3] was 7.4 months.

Turning to pembrolizumab: PD-L1 blocking antibody, in the assay with TNBC [4], the “median PFS” value is 9.7 months.
